Consider two compounds from patent publication US20140194388A1, “COMBINATION THERAPY OF HSP90 INHIBITORY COMPOUNDS WITH CHK INHIBITORS” (SYNTA PHARMACEUTICALS CORP., priority 2011, published 2014).

Assay [1] concerns B-raf. The conditions noted are these: cited from earlier work.
Assay [2] relates to CDK1. The assay is described as follows: Western blotting, CDK1 level after ganetespib (FIG. 1). Format: cell-based, human. As for the experimental part:
(§1) The LNCaP, 22Rv1, DU145 and PC3 human prostate cancer cell lines were all purchased from the American Type Culture Collection (Manassas, Va., USA). Cells were maintained and cultured according to standard techniques at 37° C. in 5% (v/v) CO2 using culture medium recommended by the supplier. All primary antibodies were purchased from Cell Signaling Technology (Beverly, Mass., USA) with the exception of RAF1 (Santa Cruz Biotechnology, Santa Cruz, Calif., USA), p-EGFR (Tyr1068) (Invitrogen, Carlsbad, Calif., USA) and actin (GE Healthcare, UK). The Hsp90 inhibitors ganetespib and 17-AAG were synthesized at Synta Pharmaceuticals Corp.
(§2) Prostate cancer cell lines were lysed in RIPA buffer (Cell Signaling Technology, Beverly, Mass. USA). Lysates were clarified by centrifugation and equal amounts of protein resolved by SDS-PAGE before transfer to nitrocellulose membranes. Membranes were blocked with 5% skim milk in TBS with 0.5% Tween and immunoblotted with indicated antibodies. Antigen-antibody complexes were visualized using an Odyssey system (LI-COR, Lincoln, Nebr., USA).
(In general: Immunoblotting shows a protein as a band on a membrane.)

Assay [3] deals with CHK1. The assay can be described thus: Western blotting, CHK1 level / CHK activity after ganetespib (FIG. 1). The class given is cell-based, human. The method, then:
as §1, §2

The structures appear in SMILES notation.

As for `C=CCNC1=C2C[C@@H](C)C[C@H](OC)[C@H](O)[C@@H](C)/C=C(\C)[C@H](OC(N)=O)[C@@H](OC)/C=C\C=C(/C)C(=O)NC(=CC1=O)C2=O` [Compound 17AAG], in assay [1] (cancer cells treated with 17AAG), the “degradation of B-raf” value is on record as “stimulate the degradation of B-raf”. The “sensitivity of B-raf mutants E586K and L597V to degradation” value in assay [1] (cells treated with 17AAG) is listed as “not sensitive to degradation”. Moreover, the “rate of B-raf degradation, V600E mutant vs wild type” value in assay [1] (melanoma cell line A375 (V600E) vs CHL cells (wild type B-raf)) is recorded as “degraded more rapidly than in CHL cells”. For the same compound, the “rate of degradation of B-raf mutants V600D, G469A, G469E, G596R, G466V, G594V” value in assay [1] (transvected into COS cells) is on record as “degraded more rapidly than wild type B-raf”.

With `CC(C)c1cc(-c2nnc(O)n2-c2ccc3c(ccn3C)c2)c(O)cc1O` [ganetespib, 3-(2,4-DIHYDROXY- 5-ISOPROPYL- PHENYL)-4-(1- METHYL-INDOL- 5-YL)-5- HYDROXY- [1,2,4]TRIAZOLE], the “effect on stability of the master cell cycle regulator CDK1” value in assay [2] is recorded as “destabilizes”. Also, the “disruption of CHK activity by inhibition of Hsp90 activity” value in assay [3] is listed as “highly effective in disrupting CHK activity”. The “effect on stability of the DNA damage checkpoint CHK1” value in assay [3] (FIG. 1) was “destabilizes”.
